According to PubChem BioAssay AID2124 (Sanford-Burnham Center for Chemical Genomics, 2009):
Records with an inconclusive call do not appear. Activity calls are given as the source filed them. How the calls were made is not given here; tested in MIN6 cells.

Assay: cell-permeable autofluorescent compounds in GFP channel, dose response, artefact control, imaging, high-content imaging (AID 2124);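 further: cells exposed to compound for 48 hours before fixing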
Conditions: cells, GFP-channel autofluorescence, high-content imaging, at 10 µM; for z-score: stronger effect = higher value

| SMILES | z-score | cell count [cells] |
| --- | --- | --- |
| CNC(=O)c1ccc(-c2sc3nc(N4CCOCC4)c4c(c3c2N)CC(C)(C)OC4)o1 | -0.33 (inactive) | 2290 |
| O=c1ccc(NS(=O)(=O)c2ccccc2)cn1Cc1ccc(Cl)c(Cl)c1 | -0.38 (inactive) | 3280 |
| COc1ccc(C(=O)N(CN2CCCC2=O)c2ccc(C)cc2)cc1 | -0.33 (inactive) | 3380 |
| Nc1nnc(-c2cc3c(ccc4ccccc43)oc2=O)s1 | -0.23 (inactive) | 2510 |
| CN(C)c1ccc(/C=C2\SC(=S)N(Nc3ncc(C(F)(F)F)cc3Cl)C2=O)cc1 | 0.57 | 2530 |
| CCOC(=O)/C(C#N)=C/C=C1\C=Cc2ccccc2N1CC | -0.28 (inactive) | 2720 |
| CCOC(=O)Cn1c2ccc(F)cc2c2nc(C)sc21 | -0.39 (inactive) | 2900 |
| CCCN1CC=C2C(C#N)=C(N)C(C#N)(C#N)C(c3cc(OC)ccc3OC)C2C1 (stereo not given) | 0.52 | 3140 |
| COc1ccc(C)cc1NC(=O)COC(C)=O | -0.33 (inactive) | 3030 |
| Cc1ccc(Nc2nc3c([nH]2)c(=O)n(C)c(=O)n3C)cc1 | -0.39 (inactive) | 2720 |
| O=C(N=C1SCC(=O)N1c1ccccc1Cl)c1ccccc1 | -0.31 (inactive) | 3110 |
| COc1ccc2nc(SCC(=O)Nc3c(C)cccc3C)[nH]c2c1 | -0.39 (inactive) | 3480 |
| Cc1cc(S(=O)(=O)NC2CCCCC2)c(C)s1 | -0.33 (inactive) | 3420 |
| CCOc1ccc(C2C(C(=O)O)c3ccccc3C(=O)N2CCN2CCOCC2)cc1 (stereo not given) | -0.39 (inactive) | 3370 |
| Cc1ccc(-n2c(C)nc3oc4ccccc4c(=O)c3c2=O)cc1 | -0.33 (inactive) | 3180 |
| COc1ccc(Cl)cc1NC(=O)c1c(-c2ccccc2)noc1C | -0.39 (inactive) | 3300 |
| CCOc1ccc(OCCCCn2ccnc2)cc1 | -0.39 (inactive) | 2900 |
| O=C(Cc1nc(-c2ccc([N+](=O)[O-])cc2)cs1)Nc1ccccc1 | -0.39 (inactive) | 2770 |
| COc1cc2c(cc1OC)-c1nncn1C(C)(C)C2 | -0.32 (inactive) | 3220 |
| CCOC(=O)CN1CC23C=CC(O2)C(C(=O)Nc2cc(OC)ccc2OC)C3C1=O (stereo not given) | -0.38 (inactive) | 3210 |
| Nc1ccc(-c2nc3nc(N)nc(N)c3nc2-c2ccc(N)cc2)cc1 | -0.32 (inactive) | 2980 |
| CC1CCCN(c2nc3c(c(=O)n(C)c(=O)n3C)n2CCSc2nc3ccccc3s2)C1 (stereo not given) | -0.38 (inactive) | 3180 |
| CC(=O)N1CCN(Cc2nc3cc(NC(=O)c4ccccc4)ccc3n2C)CC1 | -0.38 (inactive) | 2960 |
| CCOC(=O)CC1C(=O)NCCN1S(=O)(=O)c1ccc(Cl)cc1Cl (stereo not given) | -0.33 (inactive) | 3500 |
| N#C/C(=C\c1ccc(N2CCCCC2)o1)C(=O)Nc1cccc(Br)c1 | 3.15 | 2780 |
| CCCCCCc1cc2cc(-c3nnc(-c4ccccc4O)o3)c(=O)oc2cc1O | -0.21 (inactive) | 2760 |
| CCc1cccc2cc3c(N)c(C(=O)Nc4ccc(S(=O)(=O)N5CCCC5)cc4)sc3nc12 | 0.3 | 2430 |

| SMILES | z-score | cell count [cells] |
| --- | --- | --- |
| CCCN1C(=O)c2cccc3c(N4CCCCC4)ccc(c23)C1=O | 0.28 | 3300 |
| O=C1C=C(Nc2ccc(O)cc2)CC(c2ccco2)C1 (stereo not given) | -0.39 (inactive) | 3020 |
| CCN1CC=C2C(C#N)=C(N)C(C#N)(C#N)[C@H](c3cccc(OC)c3OC)[C@H]2C1 | 0.28 | 2790 |
| CC1=NNC(=O)C1CCC(=O)N/N=C/c1ccc(C)cc1 (stereo not given) | -0.39 (inactive) | 3320 |
| CC(=O)Nc1sc(/C(C#N)=C\c2cccc(Cl)c2)nc1-c1ccc(C)cc1 | 1.12 | 3000 |
| O=c1ccnc(Nc2ccc3c(c2)OCCO3)[nH]1 | -0.39 (inactive) | 2860 |
| O=c1c2ccccc2c(C=Nc2ccccc2O)c(O)n1-c1nccs1 | -0.35 (inactive) | 2390 |
| CCOc1ccc(OCC)c(-c2c(=O)n(OCc3ccc(Cl)cc3)c3ccccc3[n+]2[O-])c1 | -0.38 (inactive) | 2760 |
| CCCCN1C(=O)C2(NNc3ccccc3O2)c2ccccc21 (stereo not given) | -0.31 (inactive) | 2820 |
| Cc1ccc(-c2cc(N)n(-c3ccccc3)n2)cc1 | -0.33 (inactive) | 3090 |
| CCOC(=O)c1sc(NC(=O)c2sccc2C)cc1C | -0.39 (inactive) | 3300 |
| CN(C)c1ccc(/C=C2\SC(=O)N(CC(O)Cn3c4ccccc4c4ccccc43)C2=O)cc1 (stereo not given) | -0.23 (inactive) | 3020 |
| COc1cccc(/C=N/NC(=O)CCn2cnc3ccccc32)c1 | -0.33 (inactive) | 3250 |
| CC(/C=N/NC(=O)c1ccncc1)=C\c1ccc(C(C)C)cc1 | -0.33 (inactive) | 2700 |
| Cc1ccc(S(=O)(=O)C(C#N)c2nc3ccccc3nc2N2CCC(C)CC2)cc1 (stereo not given) | -0.33 (inactive) | 3260 |
| Cc1ccc([N+](=O)[O-])cc1NC(=O)c1cccs1 | -0.33 (inactive) | 3030 |
| Cc1cccc2sc(NC(=O)C3CCCN(S(=O)(=O)c4cccc5nonc45)C3)nc12 (stereo not given) | -0.28 (inactive) | 3130 |
| N#Cc1c(C(F)(F)F)cc(-c2ccccc2)nc1SCc1nc(N)nc(N2CCOCC2)n1 | 0.32 | 3070 |
| COC(=O)c1c[nH]n2c(=O)c(Cc3ccc(F)cc3Cl)c(C)nc12 | -0.33 (inactive) | 3100 |
| CC1CCc2c(sc3nn[nH]c(=O)c23)C1 (stereo not given) | -0.33 (inactive) | 2750 |
| COC(=O)c1c(NC(=O)CC2Nc3cc(C)c(C)cc3NC2=O)sc(C)c1C (stereo not given) | -0.38 (inactive) | 3120 |
| CCOC(=O)N1CCN(C(=O)c2cc(S(=O)(=O)N3CCCC3)cn2C)CC1 | -0.33 (inactive) | 3250 |
| CCCSc1nc2sc3c(c2c(=O)[nH]1)CCN(Cc1ccccc1)C3 | -0.3 (inactive) | 3160 |
| CN1C2CCC1/C(=C/c1cccn1C)C(=O)/C2=C\c1cccn1C | -0.29 (inactive) | 3280 |
| O=C(OCC(=O)N1CCN(C(=O)c2ccco2)CC1)c1ccccc1OCc1ccccc1 | -0.38 (inactive) | 2850 |
| Cn1ncc2c1ncn1nc(CCc3ccccc3)nc21 | -0.33 (inactive) | 2710 |
| CCCCCn1nc(-c2ccccc2)c2nc3ccccc3nc21 | 1.27 | 3200 |

| SMILES | z-score | cell count [cells] |
| --- | --- | --- |
| CCOC(=O)c1cnn(-c2cc(C)nc3c(-c4ccccc4)cnn23)c1N | -0.39 (inactive) | 3280 |
| Cc1cc(C)nc(SCSc2nc(C)cc(C)n2)n1 | -0.38 (inactive) | 3370 |
| CNC(=O)C1CC(=O)N/C(=N/N=C(\C)c2cccs2)S1 (stereo not given) | -0.38 (inactive) | 3440 |
| COc1cccc(N2CCN(c3ncccn3)CC2)c1 | -0.33 (inactive) | 3230 |
| Cc1cccc(NC(=O)Nc2ccc(C#N)cc2)n1 | -0.32 (inactive) | 2800 |
| COc1ccc(C)cc1NC(=O)CC(NC(C)=O)c1ccccc1 (stereo not given) | -0.33 (inactive) | 3060 |
| O=S(=O)(Cc1ccc(Cl)cc1)c1ccccc1-c1nnc(-c2ccccc2)o1 | -0.39 (inactive) | 3320 |
| CC1(C)Cc2c(ccc3ccccc23)C(c2cc3ccccc3oc2=O)=N1 | -0.33 (inactive) | 2730 |
| Cc1ccccc1OCC(=O)OC1CCN(C)CC1 | -0.38 (inactive) | 2940 |
| O=c1c(N2CCOCC2)c(N2CCOCC2)c1=O | -0.39 (inactive) | 3130 |
| CC(=O)c1c(COC(=O)c2ccncc2)nc2ccccc2[n+]1[O-] | -0.33 (inactive) | 2880 |
| CN1C=CC2=C(C#N)C(N)C(C#N)(C#N)C(c3ccccc3)C2C1 (stereo not given) | 0.32 | 2840 |
| CCCCN(C)C1=CC2=CC(=C(C#N)C#N)CCC2CC1 (stereo not given) | 11.3 | 3120 |
| O=C(NCCCN1CCCCCC1)C1CC(=O)N(C2CCCC2)C1 (stereo not given) | -0.33 (inactive) | 3260 |
| CC(C)SC1=NC(C)(C)C=C(/C=C/c2ccc(Cl)cc2Cl)N1 | -0.36 (inactive) | 2940 |
| c1ccc(-n2ncc3c(N4CCN(c5ccccn5)CC4)nc(N4CCCCCC4)nc32)cc1 | -0.38 (inactive) | 3020 |
| CCCCNC(=O)C1CC(=O)N(C2CCCCC2)C1 (stereo not given) | -0.33 (inactive) | 3070 |
| CC1CN(C(=O)CCn2c(=O)oc3ccccc32)CC(C)O1 (stereo not given) | -0.39 (inactive) | 3070 |
| COCCNC(=O)Cc1ccc(F)cc1 | -0.33 (inactive) | 2820 |
| CCC(=O)Nc1ccc2c(c1)ncn2-c1ccccc1 | -0.34 (inactive) | 3260 |
| CCc1c(C(=O)NC2CCCCC2)[nH]c(C)c1C(C)=O | -0.25 (inactive) | 3040 |
| COc1ccc(-n2c(Cc3cccn3C)nnc2SCC(=O)Nc2cccc(C)c2C)cc1 | -0.33 (inactive) | 3130 |
| CCOc1cc(C)c(S(=O)(=O)Nc2ccc3cn[nH]c3c2)cc1C | -0.33 (inactive) | 1550 |
| CCOC(=O)CNC(=O)c1cn(C)c(=O)c2cc(OC)c(OC)cc12 | -0.33 (inactive) | 3170 |
| CCN(CC)CCn1c(=S)[nH]c2ccc(Cl)cc2c1=O | -0.33 (inactive) | 2890 |
| O=C(c1cc([N+](=O)[O-])ccc1N1CCCC1)N1CCCC1 | -0.38 (inactive) | 3210 |
